In this assay the target is MC-I from the bovine heart (mitochondrial complex I) (Bos taurus, UniProt P25708). The experiment in a line: microscale thermophoresis, label-free. The class given is binding.
Chain of MC-I from the bovine heart (mitochondrial complex I) (P25708 21-464, one chain of several): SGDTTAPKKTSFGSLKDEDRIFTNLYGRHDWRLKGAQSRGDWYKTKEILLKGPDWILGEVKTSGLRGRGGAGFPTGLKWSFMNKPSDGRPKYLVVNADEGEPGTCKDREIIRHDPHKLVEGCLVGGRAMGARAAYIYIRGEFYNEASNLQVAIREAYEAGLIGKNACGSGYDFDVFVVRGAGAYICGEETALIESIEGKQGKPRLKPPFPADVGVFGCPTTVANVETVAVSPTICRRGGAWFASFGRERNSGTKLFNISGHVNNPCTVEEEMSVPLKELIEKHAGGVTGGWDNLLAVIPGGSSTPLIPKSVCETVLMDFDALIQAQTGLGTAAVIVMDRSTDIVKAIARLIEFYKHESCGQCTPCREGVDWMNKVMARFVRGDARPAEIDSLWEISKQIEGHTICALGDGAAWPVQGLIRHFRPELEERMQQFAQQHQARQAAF

`COc1ccc2[nH]cc(CCNC(=O)CC(=O)CCc3ccc(F)cc3)c2c1` [compound 2, 5-(4-Fluorophenyl)-N-(2-(5-methoxy-1H-indol-3-yl)ethyl)-3-oxo-pentanamide]: the Kd was ~500 nM.

The values above are taken from article PMC10071493 (ACS chemical neuroscience, 2021).
